Experimental data: patent publication US8889667B2 (Agios Pharmaceuticals, Inc, priority 2010, dated 2014)

molecular target: PKM2 (Homo sapiens, UniProt P14618); assay: PKM2 Assay (activation, LDH-coupled, absorbance at 340 nm); type: biochemical; conditions: Table 5
Outline: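 Read-out was the 340 nm NADH absorbance change at 25 °C in an LDH-coupled system (PEP 0.15 mM, NADH 180 μM, ADP 0.7 mM to initiate) in 50 mM Tris pH 7.5, 100 mM KCl, 5 mM MgCl2. PKM2 at 50 ng/well was first preincubated with compound for 30 min at 4 °C. Activation given as AC50.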

Sequence of PKM2 (P14618 whole entry): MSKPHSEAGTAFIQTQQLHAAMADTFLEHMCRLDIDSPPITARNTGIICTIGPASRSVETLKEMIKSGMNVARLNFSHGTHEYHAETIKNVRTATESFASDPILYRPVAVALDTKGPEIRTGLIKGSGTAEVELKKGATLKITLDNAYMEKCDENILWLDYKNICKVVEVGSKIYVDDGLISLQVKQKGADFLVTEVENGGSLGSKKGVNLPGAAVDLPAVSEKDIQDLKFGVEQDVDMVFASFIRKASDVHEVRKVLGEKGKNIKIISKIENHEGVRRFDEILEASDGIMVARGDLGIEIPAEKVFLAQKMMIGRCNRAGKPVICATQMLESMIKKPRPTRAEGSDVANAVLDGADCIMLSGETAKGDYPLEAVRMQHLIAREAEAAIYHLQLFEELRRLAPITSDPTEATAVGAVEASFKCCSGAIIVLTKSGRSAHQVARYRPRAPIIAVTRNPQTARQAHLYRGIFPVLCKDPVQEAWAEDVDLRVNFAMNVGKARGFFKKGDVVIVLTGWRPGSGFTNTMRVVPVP

Compound | AC50 [nM]
O=C(c1ccc(NS(=O)(=O)c2cccc3cccnc23)c(OC(F)(F)F)c1)N1CCN(C2(c3ccccc3)CC2)CC1 [Compound 353, N-(4-(4-(1-phenylcyclopropyl)piperazine-1-carbonyl)-2-(trifluoromethoxy)phenyl)quinoline-8-sulfonamide] | 500 to 1000
COc1cc(NS(=O)(=O)c2cccc3cccnc23)ccc1C(=O)N1CCN(C(C)(C)c2ccccc2)CC1 [Compound 355, N-(3-methoxy-4-(4-(2-phenylpropan-2-yl)piperazine-1-carbonyl)phenyl)quinoline-8-sulfonamide] | < 100
COc1cc(C(=O)N2CCN(C(C)(C)c3ccccc3)CC2)ccc1NS(=O)(=O)c1cccc2cccnc12 [Compound 356, N-(2-methoxy-4-(4-(2-phenylpropan-2-yl)piperazine-1-carbonyl)phenyl)quinoline-8-sulfonamide] | < 100
O=C(c1ccc(NS(=O)(=O)c2cccc3cccnc23)c(OC(F)(F)F)c1)N1CCN(Cc2cnccc2C(F)(F)F)CC1 [Compound 366, N-(2-(trifluoromethoxy)-4-(4-((4-(trifluoromethyl)pyridin-3-yl)methyl)piperazine-1-arbonyl)phenyl)quinoline-8-sulfonamide] | 100 to 500
O=C(c1ccc(NS(=O)(=O)c2cccc3cccnc23)c(OC(F)(F)F)c1)N1CCN(Cc2cncc(Cl)c2)CC1 [Compound 367, N-(4-(4-((5-chloropyridin-3-yl)methyl)piperazine-1-carbonyl)-2-(trifluoromethoxy)phenyl)quinoline-8-sulfonamide] | 100 to 500
COc1ncccc1CN1CCN(C(=O)c2ccc(NS(=O)(=O)c3cccc4cccnc34)c(OC(F)(F)F)c2)CC1 [Compound 368, N-(4-(4-((2-methoxypyridin-3-yl)methyl)piperazine-1-carbonyl)-2-(trifluoromethoxy)phenyl)quinoline-8-sulfonamide] | 100 to 500
O=C(c1ccc(NS(=O)(=O)c2cccc3cccnc23)c(OC(F)(F)F)c1)N1CCN(Cc2ccc(F)cc2F)CC1 [Compound 369, N-(4-(4-(2,4-difluorobenzyl)piperazine-1-carbonyl)-2-(trifluoromethoxy)phenyl)quinoline-8-sulfonamide] | 500 to 1000
COc1cccnc1CN1CCN(C(=O)c2ccc(NS(=O)(=O)c3cccc4cccnc34)c(OC(F)(F)F)c2)CC1 [Compound 373, N-(4-(4-((3-methoxypyridin-2-yl)methyl)piperazine-1-carbonyl)-2-(trifluoromethoxy)phenyl)quinoline-8-sulfonamide] | 100 to 500
O=C(c1ccc(NS(=O)(=O)c2cccc3cccnc23)c(OC(F)(F)F)c1)N1CCN(Cc2ccc(Cl)cc2Cl)CC1 [Compound 374, N-(4-(4-(2,4-dichlorobenzyl)piperazine-1-carbonyl)-2-(trifluoromethoxy)phenyl)quinoline-8-sulfonamide] | 500 to 1000
O=C(c1ccc(NS(=O)(=O)c2cccc3cccnc23)c(OC(F)(F)F)c1)N1CCN(Cc2cccc(F)c2F)CC1 [Compound 375, N-(4-(4-(2,3-difluorobenzyl)piperazine-1-carbonyl)-2-(trifluoromethoxy)phenyl)quinoline-8-sulfonamide] | 100 to 500
O=C(c1ccc(NS(=O)(=O)c2cccc3cccnc23)c(OC(F)(F)F)c1)N1CCN(Cc2ccc(F)c(Cl)c2)CC1 [Compound 376, N-(4-(4-(3-chloro-4-fluorobenzyl)piperazine-1-carbonyl)-2-(trifluoromethoxy)phenyl)quinoline-8-sulfonamide] | 100 to 500
O=C(c1ccc(NS(=O)(=O)c2cccc3cccnc23)c(OC(F)(F)F)c1)N1CCN(Cc2cccc(F)c2)CC1 [Compound 377, N-(4-(4-(3-fluorobenzyl)piperazine-1-carbonyl)-2-(trifluoromethoxy)phenyl)quinoline-8-sulfonamide] | 100 to 500
O=C(c1ccc(NS(=O)(=O)c2cccc3cccnc23)c(OC(F)(F)F)c1)N1CCN(Cc2ccc(F)c(F)c2)CC1 [Compound 378, N-(4-(4-(3,4-difluorobenzyl)piperazine-1-carbonyl)-2-(trifluoromethoxy)phenyl)quinoline-8-sulfonamide] | 100 to 500
O=C(c1ccc(NS(=O)(=O)c2cccc3cccnc23)c(OC(F)(F)F)c1)N1CCN(Cc2cccc(Cl)c2)CC1 [Compound 379, N-(4-(4-(3-chlorobenzyl)piperazine-1-carbonyl)-2-(trifluoromethoxy)phenyl)quinoline-8-sulfonamide] | 100 to 500
O=C(c1ccc(NS(=O)(=O)c2cccc3cccnc23)c(OC(F)(F)F)c1)N1CCN(Cc2ncc[nH]2)CC1 [Compound 380, N-(4-(4-((1H-imidazol-2-yl)methyl)piperazine-1-carbonyl)-2-(trifluoromethoxy)phenyl)quinoline-8-sulfonamide] | 100 to 500

The remaining lines, values ahead:

AC50 [nM] | Compound
100 to 500 | O=C(c1ccc(NS(=O)(=O)c2cccc3cccnc23)cc1)N1CCN(C(=O)c2cc(F)cc(F)c2)CC1 [Compound 345, N-(4-(4-(3,5-difluorobenzoyl)piperazine-1-carbonyl)phenyl)quinoline-8-sulfonamide]
500 to 1000 | Cc1cnc(C(=O)N2CCN(C(=O)c3ccc(NS(=O)(=O)c4cccc5cccnc45)cc3)CC2)cn1 [Compound 346, N-(4-(4-(5-methylpyrazine-2-carbonyl)piperazine-1-carbonyl)phenyl)quinoline-8-sulfonamide]
100 to 500 | O=C(c1ccc(NS(=O)(=O)c2cccc3cccnc23)cc1)N1CCN(C(=O)c2cocn2)CC1 [Compound 347, N-(4-(4-(oxazole-4-carbonyl)piperazine-1-carbonyl)phenyl)quinoline-8-sulfonamide]
< 100 | O=C(c1ccc(NS(=O)(=O)c2cccc3cccnc23)cc1)N1CCN(C(=O)c2cncs2)CC1 [Compound 348, N-(4-(4-(thiazole-5-carbonyl)piperazine-1-carbonyl)phenyl)quinoline-8-sulfonamide]
100 to 500 | O=C(c1ccc(NS(=O)(=O)c2cccc3cccnc23)cc1)N1CCN(C(=O)c2c[nH]cn2)CC1 [Compound 349, N-(4-(4-(1H-imidazole-4-carbonyl)piperazine-1-carbonyl)phenyl)quinoline-8-sulfonamide]
100 to 500 | O=C(c1ccc(NS(=O)(=O)c2cccc3cccnc23)cc1)N1CCN(C(=O)c2cc[nH]n2)CC1 [Compound 350, N-(4-(4-(1H-pyrazole-3-carbonyl)piperazine-1-carbonyl)phenyl)quinoline-8-sulfonamide]
< 100 | O=C(c1ccc(NS(=O)(=O)c2cccc3cccnc23)cc1)N1CCN(C(c2ccc(F)cc2)C(F)(F)F)CC1 (stereo not drawn) [Compound 351, N-(4-(4-(2,2,2-trifluoro-1-(4-fluorophenyl)ethyl)piperazine-1-carbonyl)phenyl)quinoline-8-sulfonamide]
100 to 500 | COc1cc(C(=O)N2CCN(C3(c4ccccc4)CC3)CC2)ccc1NS(=O)(=O)c1cccc2cccnc12 [Compound 352, N-(2-methoxy-4-(4-(1-phenylcyclopropyl)piperazine-1-carbonyl)phenyl)quinoline-8-sulfonamide]
< 100 | O=C(c1ccc(NS(=O)(=O)c2cccc3cccnc23)cc1)N1CCN(C(=O)c2ncc[nH]2)CC1 [Compound 354, N-(4-(4-(1H-imidazole-2-carbonyl)piperazine-1-carbonyl)phenyl)quinoline-8-sulfonamide]
< 100 | CC(c1c(F)cccc1F)N1CCN(C(=O)c2ccc(NS(=O)(=O)c3cccc4cccnc34)cc2)CC1 (stereo not drawn) [Compound 357, N-(4-(4-(1-(2,6-difluorophenyl)ethyl)piperazine-1-carbonyl)phenyl)quinoline-8-sulfonamide]
< 100 | O=C(c1ccc(NS(=O)(=O)c2cccc3cccnc23)cc1)N1CCN(C(c2ccccc2)C(F)(F)F)CC1 (stereo not drawn) [Compound 358, N-(4-(4-(2,2,2-trifluoro-1-phenylethyl)piperazine-1-carbonyl)phenyl)quinoline-8-sulfonamide]
100 to 500 | CC(C)(C(=O)N1CCN(C(=O)c2ccc(NS(=O)(=O)c3cccc4cccnc34)c(OC(F)(F)F)c2)CC1)c1ccccc1 [Compound 359, N-(4-(4-(2-methyl-2-phenylpropanoyl)piperazine-1-carbonyl)-2-(trifluoromethoxy)phenyl)quinoline-8-sulfonamide]
100 to 500 | O=C(c1ccc(NS(=O)(=O)c2cccc3cccnc23)c(OC(F)(F)F)c1)N1CCN(C(=O)c2ccccc2F)CC1 [Compound 360]
500 to 1000 | O=C(Cc1ccccc1F)N1CCN(C(=O)c2ccc(NS(=O)(=O)c3cccc4cccnc34)c(OC(F)(F)F)c2)CC1 [Compound 361]
100 to 500 | CC(C)(C(=O)N1CCN(C(=O)c2ccc(NS(=O)(=O)c3cccc4cccnc34)c(OC(F)(F)F)c2)CC1)c1ccc(F)cc1 [Compound 362]
100 to 500 | O=C(c1ccncc1)N1CCN(C(=O)c2ccc(NS(=O)(=O)c3cccc4cccnc34)c(OC(F)(F)F)c2)CC1 [Compound 363]
< 100 | CC(C)(c1ccccc1)N1CCN(C(=O)c2ccc(NS(=O)(=O)c3cccc4cccnc34)cc2)CC1 [Compound 364]
< 100 | O=C(c1ccc(NS(=O)(=O)c2cccc3cccnc23)cc1)N1CCN(C(=O)c2ccno2)CC1 [Compound 365, N-(4-(4-(isoxazole-5-carbonyl)piperazine-1-carbonyl)phenyl)quinoline-8-sulfonamide]
< 100 | CC(c1cccnc1)N1CCN(C(=O)c2ccc(NS(=O)(=O)c3cccc4cccnc34)cc2)CC1 (stereo not drawn) [Compound 370, N-(4-(4-(1-(pyridin-3-yl)ethyl)piperazine-1-carbonyl)phenyl)quinoline-8-sulfonamide]
< 100 | O=C(c1ccc(NS(=O)(=O)c2cccc3cccnc23)cc1)N1CCN(C(=O)c2nccs2)CC1 [Compound 371, N-(4-(4-(thiazole-2-carbonyl)piperazine-1-carbonyl)phenyl)quinoline-8-sulfonamide]
< 100 | O=C(c1ccc(NS(=O)(=O)c2cccc3cccnc23)cc1)N1CCN(C(=O)c2cn[nH]c2)CC1 [Compound 372]
